Test results from patent US11950596B2, “Methods of protecting seeds from oxidants and microorganisms” (The United States of America, as represented by the …, priority 2020, dated 2024).
Like-named read-outs stand apart in the source and are kept apart here. Marks after values point to notes of the source that are not given here.

Assays:
P. chrysogenum 824 = assay: Heat-sensitizing bioassay of OG (MFC) in other fungi; type: cell-based, Penicillium chrysogenum; details: 90 seconds
Protocol: (§1) As described in A. flavus 3357 test (see above), microfuge tubes were treated with mild heat (57.5° C.) or maintained at RT (22.0° C.) (90 seconds). After heat treatments, entire volume (200 μL) from each microfuge tube was spread onto fresh recovery LB agar (for bacteria) or PDA (for fungi), and plates were incubated at the optimum temperature for respective microorganisms (i.e., 35° C. for Aspergillus, 37° C. for E. coli, 28° C. for Penicillium/A. tumefaciens, respectively). The growth/survival of test microorganisms were monitored after 48 to 72 hrs of incubation.
(§2) Heat-sensitizing activity of OG against other fungi: Heat-sensitizing activity of OG was then investigated in other fungi (five Aspergillus strains and seven Penicillium strains) including fungicide resistant strains (i.e., P. expansum FR2, FR3 resistant to the conventional fungicide fludioxonil) (see Table 1).

A. flavus 3357 = assay: Heat-sensitizing antimicrobial bioassay (MFC) in A. flavus 3357; type: cell-based, Aspergillus flavus; details: for MFC: Aspergillus flavus, 3357, 0.025 h, read-out: minimum fungicidal concentration (MFC; >99.999% fungal death)
Protocol: Antimicrobial bioassay: The heat-sensitizing effect of twenty-eight compounds (phenolic derivatives, alkyl gallates, other food additives) (0.025, 0.050, 0.075, 0.100, 0.200, 0.300, 0.400, 0.500, 0.600 or 0.700 mM) and six drugs/fungicides (1, 2, 4, 8, 16, 32, 64 ppm) (Table 2) were examined using A. flavus 3357. Two hundred μL of fungal spores (1.5×10^5 to 2.1×10^5 CFU) dispersed in PBS was transferred into individual microfuge tube (1.5 mL vol.), where (1) “control” tube contained DMSO only, while (2) “treatment” tube contained test chemical/drug at respective concentration. The tubes were then treated with mild heat (57.5° C.) or maintained at room temperature (RT; 22.0° C.) for 90 seconds. After treatments, entire volume (200 μL) from each microfuge tube was spread onto fresh recovery PDA, and plates were incubated at respective temperatures. Fungal growth/survival was monitored after 48 hrs of incubation.
as §1
Determination of optimum temperature and time duration for screening heat sensitizers in A. flavus 3357: For the determination of the optimum temperature and time points for screening heat sensitizers, fungal (A. flavus 3357) survivability was tested by exposing fungal spores (1.5×10^5 to 2.1×10^5 CFU) to different temperatures (50, 55, 57.5, 60, 65° C.) and time points (0.5, 1.0, 1.5, 2.0, 2.5, 3.0, 3.5, 4.0, 4.5, 5.0 min).

A. tumefaciens 4212 = assay: Heat-sensitizing bioassay of OG (MBC) in bacteria; type: cell-based, Agrobacterium tumefaciens; details: 90 seconds, read-out: minimum bactericidal concentration (MBC) of OG
Protocol: as §1
(§3) Heat-sensitizing activity of OG against bacteria (A. tumefaciens, E. coli): Heat-sensitizing activity of OG was also investigated against bacterial cells (i.e., E. coli and plant-pathogenic A. tumefaciens). […] (Table 4; FIG. 2).

A. parasiticus 5862 = assay: Heat-sensitizing bioassay of OG (MFC) in other fungi; type: cell-based, Aspergillus parasiticus; details: 90 seconds
Protocol: as §1, §2

A. parasiticus 2999 = assay: as above; type: cell-based, Aspergillus parasiticus; details: 90 seconds
Protocol: as §1, §2

E. coli JM109 = assay: Heat-sensitizing bioassay of OG (MBC) in bacteria; type: cell-based; details: Escherichia coli, 90 seconds, read-out: minimum bactericidal concentration (MBC) of OG
Protocol: as §1, §3

P. expansum W1 = assay: Heat-sensitizing bioassay of OG (MFC) in other fungi; type: cell-based; details: Penicillium expansum, 90 seconds
Protocol: as §1, §2

P. expansum FR3 = assay: as above; type: cell-based; details: Penicillium expansum, fludioxonil resistant mutant
Protocol: as §1, §2

P. expansum W2 = assay: as above; type: cell-based; details: Penicillium expansum, 90 seconds
Protocol: as §1, §2

P. expansum FR2 = assay: as above; type: cell-based; details: Penicillium expansum, fludioxonil resistant mutant
Protocol: as §1, §2

P. italicum 983 = assay: as above; type: cell-based, Penicillium italicum; details: 90 seconds
Protocol: as §1, §2

[1] = test system: A. tumefaciens or E. coli; assay: Heat-sensitizing bioassay of OG, average MBC of bacteria; type: cell-based, Agrobacterium tumefaciens, Escherichia coli; details: 90 seconds
Protocol: as §1, §3

With `CCCCCCCCOC(=O)c1cc(O)c(O)c(O)c1` [Octyl gallate] the MFC (P. chrysogenum 824; Penicillium chrysogenum, 824, 22.0° C.) was 250 µM, the MFC (P. chrysogenum 824; Penicillium chrysogenum, 824, 57.5° C.) was 130 µM and the “minimum fungicidal concentration (MFC; >99.999% fungal death)” value (A. flavus 3357) was 180* μM. It also gave an MFC (A. flavus 3357; 22.0° C. (RT), 90 seconds, PBS) of 250 µM, an MFC (A. flavus 3357) of 180 µM and an MBC (A. tumefaciens 4212; Agrobacterium tumefaciens, 4212, 22° C.) of 200 µM. For the same compound, the MBC (A. tumefaciens 4212; Agrobacterium tumefaciens, 4212, 57.5° C.) was 75 µM, the MFC (A. parasiticus 5862; Aspergillus parasiticus, 5862, 22.0° C.) was > 300 µM and the MFC (A. parasiticus 5862; Aspergillus parasiticus, 5862, 57.5° C.) was 300 µM. For the same compound, the MFC (A. parasiticus 2999; Aspergillus parasiticus, 2999, 22.0° C.) was > 300 µM, the MFC (A. parasiticus 2999; Aspergillus parasiticus, 2999, 57.5° C.) was 200 µM and the MBC (E. coli JM109; JM109, 22° C.) was 300 µM. For the same compound, the MBC (E. coli JM109; JM109, 57.5° C.) was 75 µM, the MFC (P. expansum W1; W1, 22.0° C.) was > 300 µM and the MFC (P. expansum W1; W1, 57.5° C.) was 160 µM. For the same compound, the MFC (P. expansum FR3; FR3, read-out: MFC of OG, 22.0° C., 90 seconds) was > 300 µM, the MFC (P. expansum FR3; FR3, read-out: MFC of OG, 57.5° C., 90 seconds) was 160 µM and the MFC (P. expansum W2; W2, 22.0° C.) was > 300 µM. The MFC (P. expansum W2; W2, 57.5° C.) was 170 µM, the MFC (P. expansum FR2; FR2, read-out: MFC of OG, 22.0° C., 90 seconds) was > 300 µM and the MFC (P. expansum FR2; FR2, read-out: MFC of OG, 57.5° C., 90 seconds) was 190 µM. For the same compound, the MFC (P. italicum 983; Penicillium italicum, 983, 22.0° C.) was 200 µM, the MFC (P. italicum 983; Penicillium italicum, 983, 57.5° C.) was 100 µM and the MBC ([1]; 22° C.) was 250 µM. The MBC ([1]; 57.5° C.) was 75 µM and the “average MBC of OG” value ([1]; 57.5° C., listed as OG) was 75* μM.
